Where two headings read alike, the source gives them in different places. Bridge positions count the residues as written; N and C are the ends. Square brackets hold non-standard residues; d marks the D form. Peptide text beside a SMILES is read from it. Lys(N3) = [N-]=[N+]=NCCCC[C@H](N)C(=O)O; R8 = C=CCCCCCC[C@@](C)(N)C(=O)O; Cba = N[C@@H](CC1CCC1)C(=O)O; S5 = C=CCCC[C@](C)(N)C(=O)O; βAla = NCCC(=O)O
Tests used:
human Mdm2 1–125 = target: T1, human Mdm2 1–125 (Homo sapiens, UniProt Q00987); experiment: Mdm2 binding assay (competitive fluorescence anisotropy/polarization); conditions: competitive fluorescence polarization, read-out: Mdm2 (nM), Mdm2 binding (Kd)
T1 construct: GST (N); His6 (internal); TEV cleavage site ENLYFQG (internal); made in house; host or cells: Escherichia coli BL21 (DE3) Rosetta T1R
Protocol: The TEV (tobacco etch virus) cleavage site was changed from ENLYFQS to ENLYFQG to give a fusion protein with the following sequence:
Titrations were carried out with the concentration of Mdm2 held constant at 250 nM and the labeled peptide at 50 nM. The competing molecules were then titrated against the complex of the FAM-labeled peptide and protein. Apparent Kd values were determined by fitting the experimental data to the equations shown below:(2) r=r0+(rb−r0)×2(d^2−3e)cos(θ/3)−9/3Kd1+2(d^2−3e)cos(θ/3)−dd=Kd1+Kd2+[L]st+[L]t−[P]te=([L]t−[P]t)Kd1+([L]st−[P]t)Kd2+Kd1Kd2f=−Kd1Kd2[P]tθ=arcos[−2d^3+9de−27f/2(d^2−3e)^3] where [L]st and [L]t denote labeled ligand and total unlabeled ligand input concentrations, respectively. Kd2 is the dissociation constant of the interaction between the unlabeled ligand and the protein. In all competition experiments, it was assumed that [P]t > [L]st, otherwise considerable amounts of free labeled ligand would always be present and would interfere with measurements. Kd1 is the apparent Kd for the labeled peptide used and was experimentally determined as described in the previous paragraph. The FAM-labeled peptide was dissolved in dimethyl sulfoxide (DMSO) at 1 mM and diluted into the experimental buffer. Readings were carried out with an Envision Multilabel Reader (PerkinElmer). Experiments were carried out in PBS (2.7 mM KCl, 137mM NaCl, 10 mM Na2HPO4, and 2 mM KH2PO4 (pH 7.4)) and 0.1% Tween 20 buffer. All titrations were carried out in triplicate. Curve-fitting was carried out using Prism 4.0 (GraphPad). […] Negative control titrations of the ligands under investigation were also carried out with the fluorescently labeled peptide (in the absence of Mdm2) to ensure no interactions were occurring between the ligands and the FAM-labeled peptide.

[1] = system: p53 responsive β-lactamase reporter in HCT116 cells; experiment: p53 beta-lactamase reporter gene cellular functional assay; format: cell-based; conditions: p53 reporter assay, HCT116, read-out: Cellular (µM), cellular activity (EC50)
Protocol: HCT116 cells were stably transfected with a p53 responsive β-lactamase reporter and were seeded into a 384-well plate at a density of 8000 cells per well. Cells were maintained in McCoy’s 5A Medium with 10% fetal bovine serum (FBS), Blasticidin, and Penicillin/Streptomycin. The cells were incubated overnight, followed by removal of cell growth media and replacement with Opti-MEM either containing 0% FBS or 10% FBS. […] The final working concentration of DMSO was 0.5%. β-lactamase activity was detected using the ToxBLAzer Dual Screen (Invitrogen), as per the manufacturer’s instructions. Measurements were made using the Envision multiplate reader (Perkin–Elmer).

[2] = Circular dichroism (CD) α-helicity; format: physicochemical; conditions: for Helicity (%): CD of free peptide, 25 °C, 1 mM Hepes pH 7.4, 5% methanol
Protocol: A total of 5 µL of the 10 mM stock peptide was mixed with 45 µL of 100% methanol, and dried for 2 h in the SpeedVac concentrator (Thermo Scientific). The dried peptide was reconstituted in a buffer (1 mM Hepes pH 7.4 and 5% methanol) to a concentration of 1 mM. The peptide sample was placed in a quartz cuvette with a path length of 0.2 cm. The peptide concentration was determined by the absorbance of the peptide at […]. The CD spectrum was recorded from 300 to 190 nm using the Chirascan-plus qCD machine (Applied Photophysics, Surrey, UK), at 25 °C. All experiments were done in duplicates. The CD spectrum was converted to mean residue ellipticity, before deconvolution and estimation of the secondary structure components of the peptide using the CDNN software (distributed by Applied Photophysics).

T1 sequence (Q00987 with tags, fused parts or gaps): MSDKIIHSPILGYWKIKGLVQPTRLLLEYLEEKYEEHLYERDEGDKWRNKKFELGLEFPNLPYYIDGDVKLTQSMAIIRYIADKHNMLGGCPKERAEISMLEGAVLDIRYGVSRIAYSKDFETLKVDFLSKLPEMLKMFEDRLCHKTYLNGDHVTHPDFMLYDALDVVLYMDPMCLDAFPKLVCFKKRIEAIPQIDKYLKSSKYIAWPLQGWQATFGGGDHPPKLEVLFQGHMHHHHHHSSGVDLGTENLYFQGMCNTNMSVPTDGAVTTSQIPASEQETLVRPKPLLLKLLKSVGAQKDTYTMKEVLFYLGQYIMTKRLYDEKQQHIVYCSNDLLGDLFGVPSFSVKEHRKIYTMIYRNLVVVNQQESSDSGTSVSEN

| SMILES | Kd (human Mdm2 1–125; Table 1) | EC50 ([1]; Table 1) | Helicity (%) ([2]; Table 1) | Kd (human Mdm2 1–125; Table 2) | EC50 ([1]; Table 2) | Helicity (%) ([2]; Table 2) | α-helicity by CD [2] |
| --- | --- | --- | --- | --- | --- | --- | --- |
| CC(=O)N[C@@H](CC(C)C)C(=O)N[C@H](C(=O)N[C@@H](Cc1ccccc1)C(=O)N[C@]1(C)CCCCCCC=CCCC[C@@](C)(C(=O)N[C@@H](CO)C(=O)N[C@H](C)C(=O)N[C@@H](C)C(N)=O)NC(=O)[C@H](CC2CCC2)NC(=O)[C@H](CC(C)C)NC(=O)[C@H](CCC(N)=O)NC(=O)[C@H](Cc2c[nH]c3ccccc23)NC(=O)[C@H](Cc2ccc(O)cc2)NC(=O)[C@H](CCC(=O)O)NC1=O)[C@@H](C)O [A13(D-Ala)] | 17 nM | 0.6 µM | 41.8% | – | – | – | – |
| CC(=O)N[C@@H](CCCCN=[N+]=[N-])C(=O)NCCC(=O)N[C@@H](CC(C)C)C(=O)N[C@H](C(=O)N[C@@H](Cc1ccccc1)C(=O)N[C@]1(C)CCCCCCC=CCCC[C@@](C)(C(=O)N[C@@H](CO)C(=O)N(C)[C@@H](C)C(=O)N[C@@H](C)C(N)=O)NC(=O)[C@H](CC2CCC2)NC(=O)[C@H](CCC(N)=O)NC(=O)[C@H](C)NC(=O)[C@H](Cc2c[nH]c3ccccc23)NC(=O)[C@H](Cc2ccc(O)cc2)NC(=O)[C@H](CCC(=O)O)NC1=O)[C@@H](C)O [A13(N-methyl L-Ala)] | – | – | – | 10 nM | 1.6 µM | 38.6% | – |
| CC(=O)N[C@@H](CC(C)C)C(=O)N[C@H](C(=O)N[C@@H](Cc1ccccc1)C(=O)N[C@]1(C)CCCCCCC=CCCC[C@@](C)(C(=O)N[C@@H](CO)C(=O)N[C@@H](C)C(=O)N[C@H](C)C(N)=O)NC(=O)[C@H](CC2CCC2)NC(=O)[C@H](CC(C)C)NC(=O)[C@H](CCC(N)=O)NC(=O)[C@H](Cc2c[nH]c3ccccc23)NC(=O)[C@H](Cc2ccc(O)cc2)NC(=O)[C@H](CCC(=O)O)NC1=O)[C@@H](C)O [A14(D-Ala)] | 18 nM | 0.5 µM | 34.6% | – | – | – | – |
| CC(=O)N[C@@H](CC(C)C)C(=O)N[C@H](C(=O)N[C@@H](Cc1ccccc1)C(=O)N[C@]1(C)CCCCCCC=CCCC[C@@](C)(C(=O)N[C@@H](CO)C(=O)N[C@@H](C)C(=O)N[C@@H](C)C(N)=O)NC(=O)[C@H](CC2CCC2)NC(=O)[C@H](CC(C)C)NC(=O)[C@H](CCC(N)=O)NC(=O)[C@H](Cc2c[nH]c3ccccc23)NC(=O)[C@H](Cc2ccc(O)cc2)NC(=O)[C@@H](CCC(=O)O)NC1=O)[C@@H](C)O [E5(D-Glu)] | 32 nM | 1 µM | 38.2% | – | – | – | – |
| CC(=O)N[C@@H](CC(C)C)C(=O)N[C@H](C(=O)N[C@H](Cc1ccccc1)C(=O)N[C@]1(C)CCCCCCC=CCCC[C@@](C)(C(=O)N[C@@H](CO)C(=O)N[C@@H](C)C(=O)N[C@@H](C)C(N)=O)NC(=O)[C@H](CC2CCC2)NC(=O)[C@H](CC(C)C)NC(=O)[C@H](CCC(N)=O)NC(=O)[C@H](Cc2c[nH]c3ccccc23)NC(=O)[C@H](Cc2ccc(O)cc2)NC(=O)[C@H](CCC(=O)O)NC1=O)[C@@H](C)O [F3(D-Phe)] | 6480 nM | > 50 µM | 51.8% | – | – | – | – |
| CC(=O)N[C@H](CC(C)C)C(=O)N[C@H](C(=O)N[C@@H](Cc1ccccc1)C(=O)N[C@]1(C)CCCCCCC=CCCC[C@@](C)(C(=O)N[C@@H](CO)C(=O)N[C@@H](C)C(=O)N[C@@H](C)C(N)=O)NC(=O)[C@H](CC2CCC2)NC(=O)[C@H](CC(C)C)NC(=O)[C@H](CCC(N)=O)NC(=O)[C@H](Cc2c[nH]c3ccccc23)NC(=O)[C@H](Cc2ccc(O)cc2)NC(=O)[C@H](CCC(=O)O)NC1=O)[C@@H](C)O [L1(D-Leu)] | 31 nM | 0.6 µM | 44.1% | – | – | – | – |
| CC(=O)N[C@@H](CCCCN=[N+]=[N-])C(=O)NCCC(=O)NCC(=O)N[C@H](C(=O)N[C@@H](Cc1ccccc1)C(=O)N[C@]1(C)CCCCCCC=CCCC[C@@](C)(C(=O)N[C@@H](CO)C(=O)N[C@@H](C)C(=O)N[C@@H](C)C(N)=O)NC(=O)[C@H](CC2CCC2)NC(=O)[C@H](CCC(N)=O)NC(=O)CNC(=O)[C@H](Cc2c[nH]c3ccccc23)NC(=O)[C@H](Cc2ccc(O)cc2)NC(=O)CNC1=O)[C@@H](C)O [L1G, E5G, A8G] (Ac-[Lys(N3)][βAla]GTF[R8]GYWGQ[Cba][S5]SAA-NH2; staple 6-13) | – | – | – | 49.8 nM | 1.7 µM | 20.4% | 20.4% |
| CC(=O)N[C@@H](CC(C)C)C(=O)N[C@H](C(=O)N[C@@H](Cc1ccccc1)C(=O)N[C@]1(C)CCCCCCC=CCCC[C@@](C)(C(=O)N[C@@H](CO)C(=O)N[C@@H](C)C(=O)N[C@@H](C)C(N)=O)NC(=O)[C@H](CC2CCC2)NC(=O)[C@@H](CC(C)C)NC(=O)[C@H](CCC(N)=O)NC(=O)[C@H](Cc2c[nH]c3ccccc23)NC(=O)[C@H](Cc2ccc(O)cc2)NC(=O)[C@H](CCC(=O)O)NC1=O)[C@@H](C)O [L9(D-Leu)] | 30 nM | 1.1 µM | 39.0% | – | – | – | – |
| CC(=O)N[C@H](CC(C)C)C(=O)N[C@H](C(=O)N[C@@H](Cc1ccccc1)C(=O)NC(C)(C)C(=O)N[C@@H](CCC(=O)O)C(=O)N[C@@H](Cc1ccc(O)cc1)C(=O)N[C@@H](Cc1c[nH]c2ccccc12)C(=O)N[C@@H](CCC(N)=O)C(=O)N[C@@H](CC(C)C)C(=O)N[C@@H](CC1CCC1)C(=O)NC(C)(C)C(=O)N[C@@H](CO)C(=O)N[C@@H](C)C(=O)N[C@@H](C)C(N)=O)[C@@H](C)O [Linear L1(D-Leu)] | 277 nM | > 50 µM | 37.2% | – | – | – | – |
| CC(=O)N[C@@H](CC(C)C)C(=O)N[C@H](C(=O)N[C@@H](Cc1ccccc1)C(=O)NC(C)(C)C(=O)N[C@@H](CCC(=O)O)C(=O)N[C@@H](Cc1ccc(O)cc1)C(=O)N[C@@H](Cc1c[nH]c2ccccc12)C(=O)N[C@@H](CCC(N)=O)C(=O)N[C@H](CC(C)C)C(=O)N[C@@H](CC1CCC1)C(=O)NC(C)(C)C(=O)N[C@@H](CO)C(=O)N[C@@H](C)C(=O)N[C@@H](C)C(N)=O)[C@@H](C)O [Linear L9(D-Leu)] | 88 nM | > 50 µM | 19.7% | – | – | – | – |
| CC(=O)N[C@@H](CC(C)C)C(=O)N[C@H](C(=O)N[C@@H](Cc1ccccc1)C(=O)NC(C)(C)C(=O)N[C@@H](CCC(=O)O)C(=O)N[C@@H](Cc1ccc(O)cc1)C(=O)N[C@@H](Cc1c[nH]c2ccccc12)C(=O)N[C@H](CCC(N)=O)C(=O)N[C@@H](CC(C)C)C(=O)N[C@@H](CC1CCC1)C(=O)NC(C)(C)C(=O)N[C@@H](CO)C(=O)N[C@@H](C)C(=O)N[C@@H](C)C(N)=O)[C@@H](C)O [Linear Q8(D-Gln)] | 119 nM | > 50 µM | 21.8% | – | – | – | – |
| CC(=O)N[C@@H](CC(C)C)C(=O)N[C@H](C(=O)N[C@@H](Cc1ccccc1)C(=O)N[C@]1(C)CCCCCCC=CCCC[C@@](C)(C(=O)N[C@@H](CO)C(=O)N[C@@H](C)C(=O)N[C@@H](C)C(N)=O)NC(=O)[C@H](CC2CCC2)NC(=O)[C@H](CC(C)C)NC(=O)[C@H](CCC(N)=O)NC(=O)[C@H](Cc2c[nH]c3ccccc23)NC(=O)[C@H](Cc2ccc(O)cc2)NC(=O)[C@H](C)NC1=O)[C@@H](C)O [Peptide E5A] (Ac-LTF[R8]AYWQL[Cba][S5]SAA-NH2; staple 4-11) | 29.8 nM | 0.18 µM | 27.6% | – | – | – | – |
| CC(=O)N[C@@H](CCCCN=[N+]=[N-])C(=O)NCCC(=O)N[C@@H](CC(C)C)C(=O)N[C@H](C(=O)N[C@@H](Cc1ccccc1)C(=O)N[C@]1(C)CCCCCCC=CCCC[C@@](C)(C(=O)N[C@@H](CO)C(=O)N[C@@H](C)C(=O)N[C@@H](C)C(N)=O)NC(=O)[C@H](CC2CCC2)NC(=O)[C@H](CCC(N)=O)NC(=O)[C@H](C)NC(=O)[C@H](Cc2c[nH]c3ccccc23)NC(=O)[C@H](Cc2ccc(O)cc2)NC(=O)CNC1=O)[C@@H](C)O [Peptide E5G] | – | – | – | 61.8 nM | 0.26 µM | 28.6% | 28.6% |

From paper PMC6632053, “Incorporation of Putative Helix-Breaking Amino Acids in the Design of Novel Stapled Peptides: Exploring Biophysical and Cellular Permeability Properties” (Molecules, 2019)
